From US20240398844A1, “PHENYLCOUMARINS FOR TREATING INFLAMMATION” (Ohio State Innovation Foundation, priority 2021, published 2024)
“Also recorded” adds a separate entry of the source.

What was measured:
Assay type in all cases: in vivo
HbA1C = assay: Diabetic zebrafish Western blot, HbA1C expression
Protocol: (§1) Alloxan-induced diabetic zebrafish were treated with compounds for immunoblot to validate the newly developed animal model, determine the antidiabetic potential of natural product leads, evaluate glucose metabolism, and discover possible mechanisms of action.
At 72 hpf, naturally dechorionated zebrafish were sorted into a 24-well microplate with 10 fish per well. Type 2 diabetes was induced with the diabetogenic agent alloxan at a dose of 0.5 mg/mL in system water for 3 hours. […] After 3 hours of treatment with natural product samples, 10 mg/mL D-glucose was administered in system water for 30 minutes, followed by 1 hour in fresh system water to metabolize the glucose and natural product leads. Upon completion of the 4-phase treatment cycle, zebrafish treatment groups were snap frozen into individual microcentrifuge tubes on dry ice, stored overnight at −80° C., thawed, homogenized with 2 μL PBS per animal, and centrifuged at 4° C. for 1 hour at 17,000 rpm. Protein content of homogenate supernatant was determined using the Pierce BCA Protein Assay kit (Pierce Biotechnology) and bovine serum albumin (BSA) standard curve. Absorbance of protein solutions from zebrafish homogenates and serial dilutions of the BSA standard were measured at 544 nm, using a FLUOstar Optima plate reader (BMG Labtechnologies GmbH, Inc.). Homogenates were analyzed by Western blot. Equal amounts of protein (20 μg) were combined with 4× lithium dodecyl sulphate (LDS) loading buffer (NuPAGE, Life Technologies, Carlsbad, CA, USA), brought to volume (15 μL) with PBS, and heated to 95° C. for 5 minutes. Proteins were resolved using NuPAGE Bis-Tris 4-12% gradient sodium dodecyl sulfate polyacrylamide gel electrophoresis (SDS-PAGE) gels together with SeeBlue Plus2 Pre-Stained Standard Ladder (Life Technologies).
(§2) Electrophoresis was performed using NuPAGE MES SDS Running Buffer and XCell SureLock Mini-Cell Electrophoresis System (Life Technologies). Separated proteins were transferred from the gel to a polyvinylidene fluoride (PVDF) membrane using tris buffered saline with Tween-20 (TBST) buffer. The blots were blocked in 3% BSA in TBST and subsequently probed using primary antibodies (1:1000 in 1% BSA in TBST) against each target overnight (Table 1). The secondary, horseradish peroxidase (HRP) conjugated antibodies (1:2000) were obtained from Santa Cruz Biotechnology Inc., (Santa Cruz, CA, USA). Conjugated antibodies were detected using SuperSignal West Femto chemiluminescent substrate from Pierce Biotechnology. Western blots were visualized, and images captured using a luminometer and LumiAnalyst 3.0 software (Boehringer-Mannheim, Mannheim, Germany). Band density was quantified for proteins of interest using ImageJ Gel Analysis.
In the case of duplicate blots, the band density results were expressed in bar graphs as the mean±standard error of the mean (SEM) of two independent experiments. Due to the labor- and time-intensive aspect of Western blot analysis with multiple target proteins, a maximum of two independent immunoblot experiments were performed per compared sample set. […] Additionally, treatment groups were also evaluated versus the diabetic, untreated control group for significance by Student's f-test and indicated in the bar graphs with p values represented by *p<0.05, **p<0.01, and ***p<0.001. […]

PEPCK [1] = assay: Diabetic zebrafish Western blot, PEPCK expression; settings: 10 μM, FIG. 8
Protocol: as §1
(§3) At 72 hpf, naturally dechorionated zebrafish were sorted into a 24-well microplate with 10 fish per well. Type 2 diabetes was induced with the diabetogenic agent alloxan at a dose of 0.5 mg/mL in system water for 3 hours. The incubation solution was changed to 0.01% DMSO in system water with compounds at concentrations of 20 μg/mL or […], respectively. After 3 hours of treatment with natural product samples, 10 mg/mL D-glucose was administered in system water for 30 minutes, followed by 1 hour in fresh system water to metabolize the glucose and natural product leads. Upon completion of the 4-phase treatment cycle, zebrafish treatment groups were snap frozen into individual microcentrifuge tubes on dry ice, stored overnight at −80° C., thawed, homogenized with 2 μL PBS per animal, and centrifuged at 4° C. for 1 hour at 17,000 rpm. Protein content of homogenate supernatant was determined using the Pierce BCA Protein Assay kit (Pierce Biotechnology) and bovine serum albumin (BSA) standard curve. Absorbance of protein solutions from zebrafish homogenates and serial dilutions of the BSA standard were measured at 544 nm, using a FLUOstar Optima plate reader (BMG Labtechnologies GmbH, Inc.). Homogenates were analyzed by Western blot. Equal amounts of protein (20 μg) were combined with 4× lithium dodecyl sulphate (LDS) loading buffer (NuPAGE, Life Technologies, Carlsbad, CA, USA), brought to volume (15 μL) with PBS, and heated to 95° C. for 5 minutes. Proteins were resolved using NuPAGE Bis-Tris 4-12% gradient sodium dodecyl sulfate polyacrylamide gel electrophoresis (SDS-PAGE) gels together with SeeBlue Plus2 Pre-Stained Standard Ladder (Life Technologies).
as §2, with “Western blots were visualized, and images captured using a luminometer and LumiAnalyst 3.0 software (Boehringer-Mannheim, Mannheim, Germany).” left out, “Analysis. […]” for “Analysis.”

PPAR-γ = assay: Diabetic zebrafish Western blot, PPAR-γ expression; settings: for PPAR-γ expression, dose dependence: diabetic zebrafish, 10, 5, and 1 μM
Protocol: as §1, §3
as §2, with “Western blots were visualized, and images captured using a luminometer and LumiAnalyst 3.0 software (Boehringer-Mannheim, Mannheim, Germany).” left out, “Analysis. […]” for “Analysis.”

PEPCK [2] = assay: Diabetic zebrafish Western blot, PEPCK expression; settings: FIG. 8; for PEPCK expression, efficacy of lower doses: diabetic zebrafish, 5 and 1 μM; for PEPCK expression, dose dependence: diabetic zebrafish, 10, 5, and 1 μM
[3] = diabetic zebrafish, 10, 5, and 1 μM (rosiglitazone 10 μM), duplicate blots, FIG. 7

Compound | HbA1C expression (Western blot band density) (HbA1C; [3]) | PEPCK expression versus rosiglitazone (PEPCK [1]) | PPAR-γ expression, dose dependence (PPAR-γ; FIG. 9) | PEPCK expression, efficacy of lower doses (PEPCK [2]) | PEPCK expression, dose dependence (PEPCK [2]) | HbA1C expression (Western blot band density) (HbA1C; diabetic zebrafish, 10 μM, library screen, FIG. 2 / FIG. 11) | PPAR-γ expression (Western blot band density) (PPAR-γ; diabetic zebrafish, 10 μM, library screen, FIG. 3 / FIG. 11) | PPAR-γ expression versus rosiglitazone (PPAR-γ; diabetic zebrafish, same concentration (10 μM), FIG. 9)
COc1cc(O[C@@H]2OCC(O)(CO[C@@H]3OC(CO)[C@@H](O)C(O)C3O)C2O)c2c(-c3ccc(OC(C)C)c(O)c3)cc(=O)oc2c1 (single isomer, unassigned) [Compound 40] | lacking a dose-dependent response | approximately equal efficacy to rosiglitazone | dose-dependent activation of PPAR-γ; also recorded: not as effective as 24 | not effective | dose-dependent increase in PEPCK expression; also recorded: slightly less active than the parent compound |  |  | 
COc1cc(O[C@@H]2O[C@H](CO[C@@H]3OCC(O)(CO)[C@H]3O)[C@@H](O)[C@H](O)[C@H]2O)c2c(-c3ccc(O)c(O)c3)cc(=O)oc2c1 (stereo partly drawn) [Compound 24, 5-O-[β-D-apiofuranosyl-(1→6)-β-D-glucopyranosyl]-7-methoxy-3′,4′-dihydroxy-4-phenylcoumarin] | reduced glycated hemoglobin levels in comparison to rosiglitazone | greater gluconeogenic effect than rosiglitazone | dose-dependent activation of PPAR-γ | not effective | dose-dependent increase in PEPCK expression | most effective in reducing glycated hemoglobin | greater PPAR-7 expression than the PPAR-γ positive control; also recorded: greatest PPAR-γ activation surpassing even the positive control thiazolidinedione | greater PPAR-γ expression than the FDA-approved PPAR-γ agonist
